Our source for the IC50 values is US20250145665A1, “MACROCYCLIC PEPTIDES USEFUL AS MODULATORS OF TNF ALPHA” (Bristol-Myers Squibb Company, priority 2023, published 2025).

Starred links: 1 amine or outer side, 2 acyl side, 3 side chain; linkers in the order of their positions; H or OH if unused. Positions of bridges follow the written chain, without caps; N, C: chain ends. Non-standard residues stand in square brackets, D forms with d. Residues, ends and D or L forms follow the SMILES beside them. *: point of attachment. Bip(4'-NHCO-C6H4-3-CH2COOH) = N[C@@H](Cc1ccc(-c2ccc(NC(=O)c3cccc(CC(=O)O)c3)cc2)cc1)C(=O)O; Bip(4'-NHCO-C6H4-4-CH2COOH) = N[C@@H](Cc1ccc(-c2ccc(NC(=O)c3ccc(CC(=O)O)cc3)cc2)cc1)C(=O)O; dArg(Nω-CH2C6H4-3-CH2Gua) = N=C(N)NCc1cccc(CNC(=N)NCCC[C@@H](N)C(=O)O)c1; Bip(4'-NH) = O=C([C@H](Cc1ccc(-c2ccc(N[*:3])cc2)cc1)N[*:1])[*:2]; Indazole3carbonyl(1-CH2COOH) = O=C(O)Cn1nc(C(=O)*)c2ccccc21; Bip(4'-COOH) = N[C@@H](Cc1ccc(-c2ccc(C(=O)O)cc2)cc1)C(=O)O; Indole3carbonyl(1-CH2COOH) = O=C(O)Cn1cc(C(=O)*)c2ccccc21; dArg(ω-Bn) = N=C(NCCC[C@@H](N)C(=O)O)NCc1ccccc1; Ala(morpholin-4-yl) = N[C@@H](CN1CCOCC1)C(=O)O; Benzoyl(3-OCH2COOH) = O=C(O)COc1cccc(C(=O)*)c1; Phe(3-CONH2) = NC(=O)c1cccc(C[C@H](N)C(=O)O)c1; Bip = N[C@@H](Cc1ccc(-c2ccccc2)cc1)C(=O)O; X13 = O=C([C@H](Cc1ccc[nH]1)N[*:1])[*:2]; Cha = N[C@@H](CC1CCCCC1)C(=O)O; Tle = CC(C)(C)[C@H](N)C(=O)O; Sar = CNCC(=O)O

The target in one experiment is TNFα (Homo sapiens, UniProt P01375). In words: TNF-Induced HEK-Blue Assay. The format is cell-based.
Chain of TNFα (P01375 77-233 limits assumed): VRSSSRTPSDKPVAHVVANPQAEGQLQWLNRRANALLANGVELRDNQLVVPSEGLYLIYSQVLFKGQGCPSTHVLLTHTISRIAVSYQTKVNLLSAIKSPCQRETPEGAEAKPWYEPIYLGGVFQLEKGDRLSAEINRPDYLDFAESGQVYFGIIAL
Details: not given
Regarding `CC(C)C[C@@H]1NC(=O)[C@H](Cc2ccc(O)cc2)NC(=O)[C@H](C(C)C)NC(=O)[C@@H]2CCCN2C(=O)[C@H](C(C)C)NC(=O)[C@@H](CCCNC(=N)NCc2ccccc2)NC(=O)[C@H](CC(=O)O)NC(=O)[C@@H]2CCCN2C(=O)CN(C)C(=O)[C@H](Cc2ccc(-c3ccc(NC(=O)c4nn(CC(=O)O)c5ccccc45)cc3)cc2)NC(=O)[C@H](Cc2ccc(-c3ccc(C(=O)O)cc3)cc2)NC(=O)[C@H](CC2CCCCC2)NC(=O)CSC[C@@H](C(=O)NCC(N)=O)NC1=O` [Example 579] ({CH2CO}-[Cha][Bip(4'-COOH)][Bip(4'-NH)](Indazole3carbonyl(1-CH2COOH))[Sar]PD[dArg(ω-Bn)]VPVYLCG-NH2; thioether N-13), the IC50 (usually the concentration needed to halve the response being measured) was < 50 nM.
Still for that read-out and setting: next, `CC(C)C[C@@H]1NC(=O)[C@H](Cc2ccc(O)cc2)NC(=O)[C@H](C(C)C)NC(=O)[C@@H]2CCCN2C(=O)[C@H](C(C)C)NC(=O)[C@@H](CCCNC(=N)NCc2ccccc2)NC(=O)[C@H](CC(=O)O)NC(=O)[C@@H]2CCCN2C(=O)CN(C)C(=O)[C@H](Cc2ccc(-c3ccc(NC(=O)c4cn(CC(=O)O)c5ccccc45)cc3)cc2)NC(=O)[C@H](Cc2ccc(-c3ccc(C(=O)O)cc3)cc2)NC(=O)[C@H](CC2CCCCC2)NC(=O)CSC[C@@H](C(=O)NCC(N)=O)NC1=O` [Example 580] ({CH2CO}-[Cha][Bip(4'-COOH)][Bip(4'-NH)](Indole3carbonyl(1-CH2COOH))[Sar]PD[dArg(ω-Bn)]VPVYLCG-NH2; thioether N-13): < 50 nM; `CC[C@H](C)[C@@H]1NC(=O)[C@@H](CCCNC(=N)NCc2cccc(CNC(=N)N)c2)NC(=O)[C@H](CC(=O)O)NC(=O)[C@@H]2CCCN2C(=O)CN(C)C(=O)[C@H](Cc2ccc(-c3ccc(NC(=O)c4nn(CC(=O)O)c5ccccc45)cc3)cc2)NC(=O)[C@H](Cc2ccc(-c3ccccc3)cc2)NC(=O)[C@H](CN2CCOCC2)NC(=O)CSC[C@@H](C(=O)NCC(N)=O)NC(=O)[C@H](CC(C)C)NC(=O)[C@H](Cc2cnc[nH]2)NC(=O)[C@H](C(C)C)NC(=O)[C@@H]2CCCN2C1=O` [Example 598] ({CH2CO}-[Ala(morpholin-4-yl)][Bip][Bip(4'-NH)](Indazole3carbonyl(1-CH2COOH))[Sar]PD[dArg(Nω-CH2C6H4-3-CH2Gua)]IPVHLCG-NH2; thioether N-13): < 50 nM.

The experiment is the same for the next values; noted with them: HEK-Blue-CD40L cells, NF-kB-driven secreted alkaline phosphatase reporter; TNFα 0.5 ng/ml; 18 h; read-out: TNF induced HEK-Blue assay IC50 value.
Turning to `CC(C)C[C@@H]1NC(=O)[C@H](Cc2ccc(O)cc2)NC(=O)[C@H](C(C)C)NC(=O)[C@@H]2CCCN2C(=O)[C@H](C(C)C)NC(=O)[C@@H](CCCNC(=N)NCc2ccccc2)NC(=O)[C@H](CC(=O)O)NC(=O)[C@@H]2CCCN2C(=O)CN(C)C(=O)[C@H](Cc2ccc(-c3ccc(NC(=O)c4ccc(CC(=O)O)cc4)cc3)cc2)NC(=O)[C@H](Cc2ccc(-c3ccc(C(=O)O)cc3)cc2)NC(=O)[C@H](CC2CCCCC2)NC(=O)CSC[C@@H](C(=O)NCC(N)=O)NC1=O` [Example 582] ({CH2CO}-[Cha][Bip(4'-COOH)][Bip(4'-NHCO-C6H4-4-CH2COOH)][Sar]PD[dArg(ω-Bn)]VPVYLCG-NH2; thioether N-13), the half-inhibitory concentration (IC50) was < 50 nM.
Same read-out and setting: next, `CC(C)C[C@@H]1NC(=O)[C@H](Cc2ccc(O)cc2)NC(=O)[C@H](C(C)C)NC(=O)[C@@H]2CCCN2C(=O)[C@H](C(C)C)NC(=O)[C@@H](CCCNC(=N)NCc2ccccc2)NC(=O)[C@H](CC(=O)O)NC(=O)[C@@H]2CCCN2C(=O)CN(C)C(=O)[C@H](Cc2ccc(-c3ccc(NC(=O)c4cccc(CC(=O)O)c4)cc3)cc2)NC(=O)[C@H](Cc2ccc(-c3ccc(C(=O)O)cc3)cc2)NC(=O)[C@H](CC2CCCCC2)NC(=O)CSC[C@@H](C(=O)NCC(N)=O)NC1=O` [Example 583] ({CH2CO}-[Cha][Bip(4'-COOH)][Bip(4'-NHCO-C6H4-3-CH2COOH)][Sar]PD[dArg(ω-Bn)]VPVYLCG-NH2; thioether N-13): 50 to 200 nM; `CC[C@H](C)[C@@H]1NC(=O)[C@@H](CCCNC(=N)NCc2ccccc2)NC(=O)[C@H](CC(=O)O)NC(=O)[C@H](Cc2cnc[nH]2)NC(=O)CN(C)C(=O)[C@H](Cc2ccc(-c3ccc(NC(=O)c4ccc(CC(=O)O)cc4)cc3)cc2)NC(=O)[C@H](Cc2ccc(-c3ccc(C(=O)O)cc3)cc2)NC(=O)[C@H](CC2CCCCC2)NC(=O)CSC[C@@H](C(=O)NCC(N)=O)NC(=O)[C@H](CC(C)C)NC(=O)[C@H](Cc2cnc[nH]2)NC(=O)[C@H](C(C)C)NC(=O)[C@@H]2CCCN2C1=O` [Example 584] ({CH2CO}-[Cha][Bip(4'-COOH)][Bip(4'-NHCO-C6H4-4-CH2COOH)][Sar]HD[dArg(ω-Bn)]IPVHLCG-NH2; thioether N-13): 50 to 200 nM.
Turning to `CC[C@H](C)[C@@H]1NC(=O)[C@@H](CCCNC(=N)NCc2ccccc2)NC(=O)[C@H](CC(=O)O)NC(=O)[C@H](Cc2cnc[nH]2)NC(=O)CN(C)C(=O)[C@H](Cc2ccc(-c3ccc(NC(=O)c4cccc(OCC(=O)O)c4)cc3)cc2)NC(=O)[C@H](Cc2ccc(-c3ccc(C(=O)O)cc3)cc2)NC(=O)[C@H](CC2CCCCC2)NC(=O)CSC[C@@H](C(=O)NCC(N)=O)NC(=O)[C@H](CC(C)C)NC(=O)[C@H](Cc2cnc[nH]2)NC(=O)[C@H](C(C)C)NC(=O)[C@@H]2CCCN2C1=O` [Example 585] ({CH2CO}-[Cha][Bip(4'-COOH)][Bip(4'-NH)](Benzoyl(3-OCH2COOH))[Sar]HD[dArg(ω-Bn)]IPVHLCG-NH2; thioether N-13), the concentration for half-maximal inhibition (IC50) lay in the range of 50 to 200 nM.
On the same count and under the same terms, to `CC[C@H](C)[C@@H]1NC(=O)[C@@H](CCCNC(=N)N)NC(=O)[C@H](CC(=O)O)NC(=O)[C@H](Cc2cnc[nH]2)NC(=O)CN(C)C(=O)[C@H](Cc2ccc(-c3ccc(NC(=O)c4cccc(OCC(=O)O)c4)cc3)cc2)NC(=O)[C@H](Cc2ccc(-c3ccc(C(=O)O)cc3)cc2)NC(=O)[C@H](CC2CCCCC2)NC(=O)CSC[C@@H](C(=O)NCC(N)=O)NC(=O)[C@H](CC(C)C)NC(=O)[C@H](Cc2cccc(C(N)=O)c2)NC(=O)[C@H](C(C)C)NC(=O)[C@@H]2CCCN2C1=O` [Example 586] ({CH2CO}-[Cha][Bip(4'-COOH)][Bip(4'-NH)](Benzoyl(3-OCH2COOH))[Sar]HD[dR]IPV[Phe(3-CONH2)]LCG-NH2; thioether N-13) belongs < 50 nM; to `CC(C)C[C@@H]1NC(=O)[C@H](Cc2cccc(C(N)=O)c2)NC(=O)[C@H](C(C)C)NC(=O)[C@@H]2CCCN2C(=O)[C@H](C(C)C)NC(=O)[C@@H](CCCNC(=N)N)NC(=O)[C@H](CC(=O)O)NC(=O)[C@H](Cc2cnc[nH]2)NC(=O)CN(C)C(=O)[C@H](Cc2ccc(-c3ccc(NC(=O)c4cccc(OCC(=O)O)c4)cc3)cc2)NC(=O)[C@H](Cc2ccc(-c3ccc(C(=O)O)cc3)cc2)NC(=O)[C@H](CC2CCCCC2)NC(=O)CSC[C@@H](C(=O)NCC(N)=O)NC1=O` [Example 587] ({CH2CO}-[Cha][Bip(4'-COOH)][Bip(4'-NH)](Benzoyl(3-OCH2COOH))[Sar]HD[dR]VPV[Phe(3-CONH2)]LCG-NH2; thioether N-13), < 50 nM.
The same measure, in the same setting: to `CC[C@H](C)[C@@H]1NC(=O)[C@@H](CCCNC(=N)N)NC(=O)[C@H](CC(=O)O)NC(=O)[C@H](Cc2cnc[nH]2)NC(=O)CN(C)C(=O)[C@H](Cc2ccc(-c3ccc(NC(=O)c4cccc(CC(=O)O)c4)cc3)cc2)NC(=O)[C@H](Cc2ccc(-c3ccc(C(=O)O)cc3)cc2)NC(=O)[C@H](CC2CCCCC2)NC(=O)CSC[C@@H](C(=O)NCC(N)=O)NC(=O)[C@H](CC(C)C)NC(=O)[C@H](Cc2cccc(C(N)=O)c2)NC(=O)[C@H](C(C)C)NC(=O)[C@@H]2CCCN2C1=O` [Example 588] ({CH2CO}-[Cha][Bip(4'-COOH)][Bip(4'-NHCO-C6H4-3-CH2COOH)][Sar]HD[dR]IPV[Phe(3-CONH2)]LCG-NH2; thioether N-13) belongs < 50 nM; to `CC[C@H](C)[C@@H]1NC(=O)[C@@H](CCCNC(=N)N)NC(=O)[C@H](CC(=O)O)NC(=O)[C@H](Cc2cnc[nH]2)NC(=O)CN(C)C(=O)[C@H](Cc2ccc(-c3ccc(NC(=O)c4ccc(CC(=O)O)cc4)cc3)cc2)NC(=O)[C@H](Cc2ccc(-c3ccc(C(=O)O)cc3)cc2)NC(=O)[C@H](CC2CCCCC2)NC(=O)CSC[C@@H](C(=O)NCC(N)=O)NC(=O)[C@H](CC(C)C)NC(=O)[C@H](Cc2cccc(C(N)=O)c2)NC(=O)[C@H](C(C)C)NC(=O)[C@@H]2CCCN2C1=O` [Example 589] ({CH2CO}-[Cha][Bip(4'-COOH)][Bip(4'-NHCO-C6H4-4-CH2COOH)][Sar]HD[dR]IPV[Phe(3-CONH2)]LCG-NH2; thioether N-13), < 50 nM.
Still for that read-out and setting: next, `CC(C)C[C@@H]1NC(=O)[C@H](Cc2cccc(C(N)=O)c2)NC(=O)[C@H](C(C)C)NC(=O)[C@@H]2CCCN2C(=O)[C@H](C(C)C)NC(=O)[C@@H](CCCNC(=N)N)NC(=O)[C@H](CC(=O)O)NC(=O)[C@H](Cc2cnc[nH]2)NC(=O)CN(C)C(=O)[C@H](Cc2ccc(-c3ccc(NC(=O)c4cccc(OCC(=O)O)c4)cc3)cc2)NC(=O)[C@H](Cc2ccc(-c3ccc(C(=O)O)cc3)cc2)NC(=O)[C@H](C(C)(C)C)NC(=O)CSC[C@@H](C(=O)NCC(N)=O)NC1=O` [Example 590] ({CH2CO}-[Tle][Bip(4'-COOH)][Bip(4'-NH)](Benzoyl(3-OCH2COOH))[Sar]HD[dR]VPV[Phe(3-CONH2)]LCG-NH2; thioether N-13): < 50 nM; `CC[C@H](C)[C@@H]1NC(=O)[C@@H](CCCNC(=N)N)NC(=O)[C@H](CC(=O)O)NC(=O)[C@H](Cc2cnc[nH]2)NC(=O)CN(C)C(=O)[C@H](Cc2ccc(-c3ccc(NC(=O)c4cccc(OCC(=O)O)c4)cc3)cc2)NC(=O)[C@H](Cc2ccc(-c3ccc(C(=O)O)cc3)cc2)NC(=O)[C@H](C(C)(C)C)NC(=O)CSC[C@@H](C(=O)NCC(N)=O)NC(=O)[C@H](CC(C)C)NC(=O)[C@H](Cc2cccc(C(N)=O)c2)NC(=O)[C@H](C(C)C)NC(=O)[C@@H]2CCCN2C1=O` [Example 591] ({CH2CO}-[Tle][Bip(4'-COOH)][Bip(4'-NH)](Benzoyl(3-OCH2COOH))[Sar]HD[dR]IPV[Phe(3-CONH2)]LCG-NH2; thioether N-13): < 50 nM; `CC(C)C[C@@H]1NC(=O)[C@H](Cc2ccc[nH]2)NC(=O)[C@H](C(C)C)NC(=O)[C@@H]2CCCN2C(=O)[C@H](C(C)C)NC(=O)[C@@H](CCCNC(=N)N)NC(=O)[C@H](CC(=O)O)NC(=O)[C@H](Cc2cnc[nH]2)NC(=O)CN(C)C(=O)[C@H](Cc2ccc(-c3ccc(NC(=O)c4cccc(CC(=O)O)c4)cc3)cc2)NC(=O)[C@H](Cc2ccc(-c3ccc(C(=O)O)cc3)cc2)NC(=O)[C@H](C(C)(C)C)NC(=O)CSC[C@@H](C(=O)NCC(N)=O)NC1=O` [Example 597] ({CH2CO}-[Tle][Bip(4'-COOH)][Bip(4'-NHCO-C6H4-3-CH2COOH)][Sar]HD[dR]VPV[X13]LCG-NH2; thioether N-13): < 50 nM.
